In ChEMBL document CHEMBL1201861, “Genomics of Drug Sensitity in Cancer screening data, Wellcome Trust Sanger Institute”:

Legend:
Assay in all cases: cells
LS-513 = type: functional, cell-based, Homo sapiens; conditions: Homo sapiens, LS-513
Description: SANGER: Inhibition of human LS-513 cell growth in a cell viability assay.

NCI-H1838 = type: functional, cell-based, Homo sapiens; conditions: Homo sapiens, NCI-H1838;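 further: growth inhibition of NCI-H1838 cells, determined with a cell viability readout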
Description: SANGER: Inhibition of human NCI-H1838 cell growth in a cell viability assay.

ES7 = type: functional, cell-based, Homo sapiens; conditions: Homo sapiens, ES7;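 further: growth inhibition of cultured human ES7 cells, read out as cell viability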
Description: SANGER: Inhibition of human ES7 cell growth in a cell viability assay.

HDLM-2 = type: functional, cell-based, Homo sapiens; conditions: Homo sapiens, HDLM-2;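 further: cell viability assay measuring suppression of HDLM-2 proliferation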
Description: SANGER: Inhibition of human HDLM-2 cell growth in a cell viability assay.

EW-18 = type: functional, cell-based, Homo sapiens; conditions: Homo sapiens, EW-18; read-out: IC50;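 further: growth inhibition of EW-18 cells, read out by a cell viability assay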
Description: SANGER: Inhibition of human EW-18 cell growth in a cell viability assay.

SW982 = type: functional, cell-based; conditions: Homo sapiens;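 further: growth inhibition of SW982 cells, read out with a cell viability assay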
Description: SANGER: Inhibition of human SW982 cell growth in a cell viability assay.

DU-4475 = type: functional, cell-based, Homo sapiens; conditions: Homo sapiens, DU-4475
Description: SANGER: Inhibition of human DU-4475 cell growth in a cell viability assay.

KLE = type: functional, cell-based; conditions: Homo sapiens;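 further: growth inhibition of human KLE cells, read out with a cell viability assay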
Description: SANGER: Inhibition of human KLE cell growth in a cell viability assay.

NCI-H1581 = type: functional, cell-based, Homo sapiens; conditions: Homo sapiens, NCI-H1581;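 further: cell growth inhibition read out by a viability assay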
Description: SANGER: Inhibition of human NCI-H1581 cell growth in a cell viability assay.

ACN = type: functional, cell-based, Homo sapiens; conditions: Homo sapiens, ACN;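 further: growth inhibition of the human ACN cell line, read out via cell viability testing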
Description: SANGER: Inhibition of human ACN cell growth in a cell viability assay.

IST-MEL1 = type: functional, cell-based, Homo sapiens; conditions: Homo sapiens, IST-MEL1;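 further: growth inhibition of the cell line, read out with a cell viability assay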
Description: SANGER: Inhibition of human IST-MEL1 cell growth in a cell viability assay.

QIMR-WIL = type: functional, cell-based, Homo sapiens; conditions: Homo sapiens, QIMR-WIL;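 further: growth inhibition of QIMR-WIL cells, read out with a cell viability assay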
Description: SANGER: Inhibition of human QIMR-WIL cell growth in a cell viability assay.

MPP-89 = type: functional, cell-based, Homo sapiens; conditions: Homo sapiens, MPP-89;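 further: growth inhibition of human MPP-89 cells, read out with a cell viability assay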
Description: SANGER: Inhibition of human MPP-89 cell growth in a cell viability assay.

MSTO-211H = type: functional, cell-based, Homo sapiens; conditions: Homo sapiens, MSTO-211H
Description: SANGER: Inhibition of human MSTO-211H cell growth in a cell viability assay.

U-118-MG = type: functional, cell-based; conditions: Homo sapiens
Description: SANGER: Inhibition of human U-118-MG cell growth in a cell viability assay.

no-10 = type: functional, cell-based, Homo sapiens; conditions: Homo sapiens;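 further: growth inhibition of no-10 cells, read out with a cell viability assay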
Description: SANGER: Inhibition of human no-10 cell growth in a cell viability assay.

DOHH-2 = type: functional, cell-based, Homo sapiens; conditions: Homo sapiens, DOHH-2;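 further: growth inhibition of human DOHH-2 cells, read out with a cell viability assay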
Description: SANGER: Inhibition of human DOHH-2 cell growth in a cell viability assay.

NCI-H1092 = type: functional, cell-based, Homo sapiens; conditions: Homo sapiens, NCI-H1092;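 further: cell growth inhibition measured with a cell viability assay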
Description: SANGER: Inhibition of human NCI-H1092 cell growth in a cell viability assay.

EW-11 = type: functional, cell-based, Homo sapiens; conditions: Homo sapiens, EW-11;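 further: growth inhibition of human EW-11 cells, measured with a cell viability assay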
Description: SANGER: Inhibition of human EW-11 cell growth in a cell viability assay.

TE-9 = type: functional, cell-based, Homo sapiens; conditions: Homo sapiens, TE-9;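 further: cell growth inhibition, measured with a cell viability readout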
Description: SANGER: Inhibition of human TE-9 cell growth in a cell viability assay.

no-11 = type: functional, cell-based, Homo sapiens; conditions: Homo sapiens;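 further: growth inhibition of human NO-11 cells, read out with a cell viability assay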
Description: SANGER: Inhibition of human no-11 cell growth in a cell viability assay.

A704 = type: functional, cell-based; conditions: Homo sapiens;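 further: growth inhibition of human A704 cells, read out with a cell viability assay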
Description: SANGER: Inhibition of human A704 cell growth in a cell viability assay.

SK-UT-1 = type: functional, cell-based, Homo sapiens; conditions: Homo sapiens, SK-UT-1;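 further: growth inhibition of SK-UT-1 cells, measured by a cell viability assay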
Description: SANGER: Inhibition of human SK-UT-1 cell growth in a cell viability assay.

BV-173 = type: functional, cell-based, Homo sapiens; conditions: Homo sapiens, BV-173
Description: SANGER: Inhibition of human BV-173 cell growth in a cell viability assay.

NB5 = type: functional, cell-based, Homo sapiens; conditions: Homo sapiens, NB5;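 further: growth inhibition of NB5 cells, read out as cell viability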
Description: SANGER: Inhibition of human NB5 cell growth in a cell viability assay.

SW872 = type: functional, cell-based, Homo sapiens; conditions: Homo sapiens, SW872;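 further: growth inhibition of SW872 cells, read out by a viability assay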
Description: SANGER: Inhibition of human SW872 cell growth in a cell viability assay.

BB30-HNC = type: functional, cell-based, Homo sapiens; conditions: Homo sapiens, BB30-HNC;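 further: growth inhibition of the cultured cell line, read out by a cell viability assay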
Description: SANGER: Inhibition of human BB30-HNC cell growth in a cell viability assay.

TE-8 = type: functional, cell-based, Homo sapiens; conditions: Homo sapiens, TE-8;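 further: growth inhibition of TE-8 cells, measured with a cell viability readout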
Description: SANGER: Inhibition of human TE-8 cell growth in a cell viability assay.

HT = type: functional, cell-based, Homo sapiens; conditions: Homo sapiens, HT
Description: SANGER: Inhibition of human HT cell growth in a cell viability assay.

A388 = type: functional, cell-based; conditions: Homo sapiens;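 further: growth inhibition of human A388 cells, read out with a cell viability assay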
Description: SANGER: Inhibition of human A388 cell growth in a cell viability assay.

DOK = type: functional, cell-based; conditions: Homo sapiens;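 further: cell viability assay read-out, values reflect inhibition of cell growth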
Description: SANGER: Inhibition of human DOK cell growth in a cell viability assay.

NCI-H226 = type: functional, cell-based, Homo sapiens; conditions: Homo sapiens, NCI-H226;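 further: cell viability read-out used to gauge growth inhibition of the cells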
Description: SANGER: Inhibition of human NCI-H226 cell growth in a cell viability assay.

OCI-AML2 = type: functional, cell-based, Homo sapiens; conditions: Homo sapiens, OCI-AML2;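 further: growth inhibition of OCI-AML2 cells, read out with a cell viability assay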
Description: SANGER: Inhibition of human OCI-AML2 cell growth in a cell viability assay.

EW-16 = type: functional, cell-based, Homo sapiens; conditions: Homo sapiens, EW-16;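 further: growth inhibition of human EW-16 cells, read out as cell viability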
Description: SANGER: Inhibition of human EW-16 cell growth in a cell viability assay.

MMAC-SF = type: functional, cell-based; conditions: Homo sapiens;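 further: growth inhibition of human MMAC-SF cells, read out with a cell viability assay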
Description: SANGER: Inhibition of human MMAC-SF cell growth in a cell viability assay.

IST-SL1 = type: functional, cell-based, Homo sapiens; conditions: Homo sapiens, IST-SL1;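 further: growth inhibition of human IST-SL1 cells, read out with a cell viability assay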
Description: SANGER: Inhibition of human IST-SL1 cell growth in a cell viability assay.

KY821 = type: functional, cell-based, Homo sapiens; conditions: Homo sapiens, KY821;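 further: growth inhibition of human KY821 cells, read out by a cell viability assay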
Description: SANGER: Inhibition of human KY821 cell growth in a cell viability assay.

NCI-H1623 = type: functional, cell-based; conditions: Homo sapiens;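 further: cell viability assay used as the read-out for growth inhibition of NCI-H1623 cells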
Description: SANGER: Inhibition of human NCI-H1623 cell growth in a cell viability assay.

EM-2 = type: functional, cell-based, Homo sapiens; conditions: Homo sapiens, EM-2;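 further: growth inhibition of EM-2 cells, read out with a cell viability assay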
Description: SANGER: Inhibition of human EM-2 cell growth in a cell viability assay.

NCI-H1770 = type: functional, cell-based, Homo sapiens; conditions: Homo sapiens, NCI-H1770;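 further: growth inhibition of NCI-H1770 cells determined with a viability readout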
Description: SANGER: Inhibition of human NCI-H1770 cell growth in a cell viability assay.

NCI-H1395 = type: functional, cell-based, Homo sapiens; conditions: Homo sapiens, NCI-H1395;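 further: cell viability assay read-out quantifying reduced proliferation of human NCI-H1395 cells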
Description: SANGER: Inhibition of human NCI-H1395 cell growth in a cell viability assay.

D-502MG = type: functional, cell-based, Homo sapiens; conditions: Homo sapiens, D-502MG
Description: SANGER: Inhibition of human D-502MG cell growth in a cell viability assay.

OCUB-M = type: functional, cell-based; conditions: Homo sapiens;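 further: growth inhibition of the cancer cell line, read out through a cell viability assay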
Description: SANGER: Inhibition of human OCUB-M cell growth in a cell viability assay.

KGN = type: functional, cell-based, Homo sapiens; conditions: Homo sapiens, KGN;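 further: growth inhibition of KGN cells, read out with a cell viability assay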
Description: SANGER: Inhibition of human KGN cell growth in a cell viability assay.

TE-5 = type: functional, cell-based, Homo sapiens; conditions: Homo sapiens, TE-5;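 further: inhibition of cell growth, read out by a cell viability assay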
Description: SANGER: Inhibition of human TE-5 cell growth in a cell viability assay.

HEL = type: functional, cell-based, Homo sapiens; conditions: Homo sapiens, HEL;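 further: growth inhibition of HEL cells, read out with a cell viability assay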
Description: SANGER: Inhibition of human HEL cell growth in a cell viability assay.

NCI-H69 = type: functional, cell-based, Homo sapiens; conditions: Homo sapiens, NCI-H69;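 further: growth inhibition of the cell line, read out with a cell viability assay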
Description: SANGER: Inhibition of human NCI-H69 cell growth in a cell viability assay.

KINGS-1 = type: functional, cell-based, Homo sapiens; conditions: Homo sapiens, KINGS-1;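 further: cell viability assay measuring suppression of KINGS-1 cell growth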
Description: SANGER: Inhibition of human KINGS-1 cell growth in a cell viability assay.

LAN-6 = type: functional, cell-based, Homo sapiens; conditions: Homo sapiens, LAN-6;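 further: growth inhibition of LAN-6 cells, determined with a cell viability assay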
Description: SANGER: Inhibition of human LAN-6 cell growth in a cell viability assay.

LC-2-ad = type: functional, cell-based, Homo sapiens; conditions: Homo sapiens, LC-2-ad;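 further: growth inhibition of human LC-2-ad cells, read out with a cell viability assay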
Description: SANGER: Inhibition of human LC-2-ad cell growth in a cell viability assay.

GAK = type: functional, cell-based, Homo sapiens; conditions: Homo sapiens, GAK;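 further: cell growth inhibition read out by a cell viability assay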
Description: SANGER: Inhibition of human GAK cell growth in a cell viability assay.

D-247MG = type: functional, cell-based; conditions: Homo sapiens
Description: SANGER: Inhibition of human D-247MG cell growth in a cell viability assay.

CCCCCCCCCCCC1=C(O)C(=O)C=C(O)C1=O [EMBELIN]
IC50 (LS-513): > 32 µM
IC50 (NCI-H1838): > 32 µM
IC50 (ES7): 6.6 µM
IC50 (HDLM-2): 17.2 µM
IC50 (EW-18): 10.5 µM
IC50 (SW982): 7.34 µM
IC50 (DU-4475): 13.2 µM
IC50 (KLE): 24 µM
IC50 (NCI-H1581): > 32 µM
IC50 (ACN): 5.86 µM
IC50 (IST-MEL1): 7.9 µM
IC50 (QIMR-WIL): 5.29 µM
IC50 (MPP-89): 25.1 µM
IC50 (MSTO-211H): > 32 µM
IC50 (U-118-MG): 29.1 µM
IC50 (no-10): 13.9 µM
IC50 (DOHH-2): 7.57 µM
IC50 (NCI-H1092): > 32 µM
IC50 (EW-11): > 32 µM
IC50 (TE-9): 8.5 µM
IC50 (no-11): 9.88 µM
IC50 (A704): 10.9 µM
IC50 (SK-UT-1): 4.69 µM
IC50 (BV-173): > 32 µM
IC50 (NB5): 22.4 µM
IC50 (SW872): 16.2 µM
IC50 (BB30-HNC): 5.06 µM
IC50 (TE-8): 11 µM
IC50 (HT): 5.51 µM
IC50 (A388): 6.7 µM
IC50 (DOK): 11.8 µM
IC50 (NCI-H226): 17.9 µM
IC50 (OCI-AML2): 9.25 µM
IC50 (EW-16): 4.27 µM
IC50 (MMAC-SF): 26.8 µM
IC50 (IST-SL1): > 32 µM
IC50 (KY821): > 32 µM
IC50 (NCI-H1623): 25.4 µM
IC50 (EM-2): > 32 µM
IC50 (NCI-H1770): > 32 µM
IC50 (NCI-H1395): > 32 µM
IC50 (D-502MG): > 32 µM
IC50 (OCUB-M): 5.32 µM
IC50 (KGN): 3220 nM
IC50 (TE-5): 9.42 µM
IC50 (HEL): 11.2 µM
IC50 (NCI-H69): > 32 µM
IC50 (KINGS-1): > 32000 nM
IC50 (LAN-6): > 32 µM
IC50 (LC-2-ad): 12.9 µM
IC50 (GAK): 11.7 µM

COc1ccc(N(C(=O)Oc2c(C)cccc2C)c2ccnc(Nc3ccc(N4CCN(C)CC4)cc3)n2)c(OC)c1
IC50 (LS-513): > 5.12 µM
IC50 (NCI-H1838): > 5.12 µM
IC50 (ES7): > 5.12 µM
IC50 (HDLM-2): > 5.12 µM
IC50 (EW-18): > 5.12 µM
IC50 (SW982): 0.858 µM
IC50 (D-247MG): > 5.12 µM
IC50 (DU-4475): > 5.12 µM
IC50 (KLE): 1.86 µM
IC50 (NCI-H1581): > 5.12 µM
IC50 (ACN): 4.23 µM
IC50 (IST-MEL1): > 5.12 µM
IC50 (QIMR-WIL): > 5.12 µM
IC50 (MPP-89): 0.0823 µM
IC50 (MSTO-211H): > 5.12 µM
IC50 (no-10): > 5.12 µM
IC50 (DOHH-2): < 0.02 µM
IC50 (NCI-H1092): > 5.12 µM
IC50 (EW-11): > 5.12 µM
IC50 (TE-9): 4.39 µM
IC50 (no-11): > 5.12 µM
IC50 (A704): < 0.02 µM
IC50 (SK-UT-1): > 5.12 µM
IC50 (BV-173): < 0.02 µM
IC50 (NB5): > 5.12 µM
IC50 (SW872): 0.865 µM
IC50 (BB30-HNC): 1.85 µM
IC50 (TE-8): 0.239 µM
IC50 (HT): > 5.12 µM
IC50 (A388): > 5.12 µM
IC50 (NCI-H226): > 5.12 µM
IC50 (OCI-AML2): > 5.12 µM
IC50 (EW-16): > 5.12 µM
IC50 (MMAC-SF): > 5.12 µM
IC50 (IST-SL1): > 5.12 µM
IC50 (KY821): > 5.12 µM
IC50 (EM-2): < 0.02 µM
IC50 (NCI-H1770): > 5.12 µM
IC50 (NCI-H1395): > 5.12 µM
IC50 (D-502MG): > 5.12 µM
IC50 (OCUB-M): > 5.12 µM
IC50 (KGN): 1050 nM
IC50 (TE-5): > 5.12 µM
IC50 (HEL): > 5.12 µM
IC50 (NCI-H69): > 5.12 µM
IC50 (KINGS-1): 1970 nM
IC50 (LAN-6): > 5.12 µM
IC50 (LC-2-ad): 0.0203 µM
IC50 (GAK): > 5.12 µM
